According to ChEMBL document CHEMBL1201862, “PubChem BioAssay data set” (2004):
Calls of active or inactive are those of the source.

Key:
Aspartyl aminopeptidase = target: T1, Aspartyl aminopeptidase (Plasmodium falciparum 3D7, UniProt Q8I2J3)
T1 sequence (Q8I2J3 whole entry): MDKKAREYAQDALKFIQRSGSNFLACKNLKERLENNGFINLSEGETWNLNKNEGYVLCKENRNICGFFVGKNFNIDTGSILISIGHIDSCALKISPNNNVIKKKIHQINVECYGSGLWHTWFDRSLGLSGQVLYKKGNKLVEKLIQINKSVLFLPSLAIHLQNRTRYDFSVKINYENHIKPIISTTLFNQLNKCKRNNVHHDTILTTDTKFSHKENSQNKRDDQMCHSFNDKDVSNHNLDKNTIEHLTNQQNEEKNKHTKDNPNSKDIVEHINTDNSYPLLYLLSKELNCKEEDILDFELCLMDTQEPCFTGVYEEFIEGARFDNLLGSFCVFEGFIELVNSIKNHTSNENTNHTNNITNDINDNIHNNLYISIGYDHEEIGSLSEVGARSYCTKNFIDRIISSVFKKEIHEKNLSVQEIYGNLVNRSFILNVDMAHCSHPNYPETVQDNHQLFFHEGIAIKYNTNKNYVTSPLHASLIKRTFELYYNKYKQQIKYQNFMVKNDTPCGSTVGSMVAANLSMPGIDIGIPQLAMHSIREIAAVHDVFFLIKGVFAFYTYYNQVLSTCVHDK

[1] = Counterscreen for IDE inhibitors: Luminescence-based cell-based high throughput dose response assay to identify compounds that are cytotoxic to HEK cells. [Related pubchem assays: 434962 (Primary screen (IDE inhibitors in singlicate)), 449730 (Counterscreen (Cytotoxicity in triplicate)), 435028 (Confirmation (IDE inhibitors in triplicate)) …; type: functional; details: HEK293
Large T antigen = Large T antigen (Simian virus 40, UniProt P03070); type: functional, Betapolyomavirus macacae;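 note: Confirmatory-stage PubChem screen for compounds that inhibit SV40 T antigen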
Large T antigen, sequence (P03070 whole entry): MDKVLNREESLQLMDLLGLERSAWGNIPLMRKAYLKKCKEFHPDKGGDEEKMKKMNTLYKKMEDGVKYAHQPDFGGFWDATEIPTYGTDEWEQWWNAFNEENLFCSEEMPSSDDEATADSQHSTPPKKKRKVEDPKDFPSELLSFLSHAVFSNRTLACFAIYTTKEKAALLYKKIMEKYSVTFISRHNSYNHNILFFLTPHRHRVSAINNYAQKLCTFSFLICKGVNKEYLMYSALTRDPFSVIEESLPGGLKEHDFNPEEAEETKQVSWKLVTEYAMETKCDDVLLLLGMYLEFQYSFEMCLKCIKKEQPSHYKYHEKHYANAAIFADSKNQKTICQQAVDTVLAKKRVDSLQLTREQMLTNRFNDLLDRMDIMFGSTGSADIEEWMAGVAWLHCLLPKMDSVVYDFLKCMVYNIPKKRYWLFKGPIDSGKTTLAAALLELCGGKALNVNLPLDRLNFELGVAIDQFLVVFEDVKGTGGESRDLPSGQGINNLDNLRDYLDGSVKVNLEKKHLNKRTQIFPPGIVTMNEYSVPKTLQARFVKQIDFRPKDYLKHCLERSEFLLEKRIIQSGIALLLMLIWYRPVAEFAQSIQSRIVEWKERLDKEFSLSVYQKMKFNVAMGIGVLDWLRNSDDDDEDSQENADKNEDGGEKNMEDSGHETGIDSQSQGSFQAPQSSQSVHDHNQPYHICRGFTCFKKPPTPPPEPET

[2] = target: Phosphoethanolamine/phosphocholine phosphatase (Homo sapiens, UniProt Q8TCT1); test: SAR assay for compounds that inhibit PHOSPHO1. [Related pubchem assays (depositor defined):AID1545, AID1565, AID1574]
Phosphoethanolamine/phosphocholine phosphatase, sequence (Q8TCT1 whole entry): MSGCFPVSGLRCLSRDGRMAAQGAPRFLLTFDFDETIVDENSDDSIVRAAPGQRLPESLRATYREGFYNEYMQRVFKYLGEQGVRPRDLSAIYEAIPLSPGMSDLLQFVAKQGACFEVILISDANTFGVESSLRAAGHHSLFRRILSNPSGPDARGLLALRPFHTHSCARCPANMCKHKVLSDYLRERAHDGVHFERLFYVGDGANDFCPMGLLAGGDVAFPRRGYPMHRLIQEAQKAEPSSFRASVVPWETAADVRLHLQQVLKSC

[3] = NIH3T3 cell viability loss – ATP luminescence, mouse fibroblasts, counter-screen, dose response (AID 2010); type: functional, cell-based;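 note: cells exposed to compound for about 90 hours before reading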
[4] = target: T2, Mannose-6-phosphate isomerase (Homo sapiens, UniProt P34949); test: MPI inhibition at elevated mannose 6-phosphate – biochemical, fluorescence intensity, high mannose 6-phosphate, primary screen (AID 1220)
T2 sequence (P34949 whole entry): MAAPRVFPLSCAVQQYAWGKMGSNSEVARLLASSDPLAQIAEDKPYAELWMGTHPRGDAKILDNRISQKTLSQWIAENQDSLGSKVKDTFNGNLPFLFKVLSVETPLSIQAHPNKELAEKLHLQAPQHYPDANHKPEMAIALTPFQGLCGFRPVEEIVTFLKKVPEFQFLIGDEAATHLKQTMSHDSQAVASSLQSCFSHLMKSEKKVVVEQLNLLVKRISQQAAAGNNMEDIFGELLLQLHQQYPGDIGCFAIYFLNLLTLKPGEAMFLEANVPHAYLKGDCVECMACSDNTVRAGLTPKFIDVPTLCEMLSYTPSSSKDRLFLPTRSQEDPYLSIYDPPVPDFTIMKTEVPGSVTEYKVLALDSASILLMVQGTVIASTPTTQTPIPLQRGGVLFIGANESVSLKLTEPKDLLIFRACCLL

[5] = Trypanosoma cruzi growth suppression in host cells – NIH3T3 host cells, beta-gal luminescence, confirmation (AID 2044); type: functional, cell-based;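 note: intracellular parasites grown in NIH/3T3 mouse fibroblasts as host cells; luminescent beta-galactosidase reporter signal from transgenic T. cruzi replicating inside host cells; inhibitors lower the luminescence signal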
[6] = target: T2, Mannose-6-phosphate isomerase; test: MPI enzyme activity inhibition – biochemical, fluorescence intensity, coupled assay, primary screen (AID 1209)
Procathepsin L = Procathepsin L (Homo sapiens, UniProt P07711)
Procathepsin L, sequence (P07711 whole entry): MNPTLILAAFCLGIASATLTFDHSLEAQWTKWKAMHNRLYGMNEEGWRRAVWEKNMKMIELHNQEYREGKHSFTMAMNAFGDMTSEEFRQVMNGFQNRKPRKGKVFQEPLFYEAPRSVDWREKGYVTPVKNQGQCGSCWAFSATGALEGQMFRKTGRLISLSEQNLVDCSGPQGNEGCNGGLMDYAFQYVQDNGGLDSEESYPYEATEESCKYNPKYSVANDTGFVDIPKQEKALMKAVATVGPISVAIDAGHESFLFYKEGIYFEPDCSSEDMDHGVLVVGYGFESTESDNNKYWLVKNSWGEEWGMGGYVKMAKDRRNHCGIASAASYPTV

Insulin-degrading enzyme = target: T3, Insulin-degrading enzyme (Homo sapiens, UniProt P14735); test: Dose Response: Fluorescence polarization-based cell-based high throughput dose response assay for inhibitors of insulin-degrading enzyme (IDE). [Related pubchem assays: 434962 (Primary screen (IDE inhibitors in singlicate)), 449730 (Counterscreen (Cytotoxicity in triplicate)), 435028 (Confirmation (IDE inhibitors in triplicate)), 434984 (Summary …; type: functional
T3 sequence (P14735 whole entry): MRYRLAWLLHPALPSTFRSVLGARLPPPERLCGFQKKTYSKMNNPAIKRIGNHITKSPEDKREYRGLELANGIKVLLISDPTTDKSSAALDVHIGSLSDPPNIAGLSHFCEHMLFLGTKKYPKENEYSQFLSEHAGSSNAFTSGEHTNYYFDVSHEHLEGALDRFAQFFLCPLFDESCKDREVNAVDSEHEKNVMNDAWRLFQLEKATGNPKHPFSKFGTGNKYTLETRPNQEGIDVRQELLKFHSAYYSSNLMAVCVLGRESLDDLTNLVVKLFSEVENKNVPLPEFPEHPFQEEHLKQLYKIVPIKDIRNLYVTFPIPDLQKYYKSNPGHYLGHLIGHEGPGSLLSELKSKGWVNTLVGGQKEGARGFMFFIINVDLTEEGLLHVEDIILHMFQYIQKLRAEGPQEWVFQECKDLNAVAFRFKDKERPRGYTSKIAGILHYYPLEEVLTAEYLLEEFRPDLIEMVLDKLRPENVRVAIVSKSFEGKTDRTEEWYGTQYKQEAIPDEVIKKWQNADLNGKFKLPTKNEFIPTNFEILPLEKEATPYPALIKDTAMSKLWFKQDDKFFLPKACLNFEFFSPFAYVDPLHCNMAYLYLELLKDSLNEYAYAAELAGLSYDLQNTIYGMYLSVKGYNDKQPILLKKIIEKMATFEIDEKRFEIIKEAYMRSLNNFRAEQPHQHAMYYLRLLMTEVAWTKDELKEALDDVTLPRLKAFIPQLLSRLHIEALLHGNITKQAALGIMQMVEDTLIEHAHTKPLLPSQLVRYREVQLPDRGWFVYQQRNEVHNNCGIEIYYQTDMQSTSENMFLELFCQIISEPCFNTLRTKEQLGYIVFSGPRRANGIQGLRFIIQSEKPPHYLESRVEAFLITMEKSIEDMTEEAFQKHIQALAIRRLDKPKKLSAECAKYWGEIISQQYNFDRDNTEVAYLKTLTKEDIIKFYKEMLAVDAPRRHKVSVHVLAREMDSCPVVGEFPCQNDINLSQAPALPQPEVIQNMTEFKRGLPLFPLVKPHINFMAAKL

Phosphomannomutase 2 = target: T4, Phosphomannomutase 2 (Homo sapiens, UniProt O15305); test: Counter screen SAR assay for PMM2 inhibitors via a fluorescence intensity assay. [Related pubchem assays (depositor defined):AID1545, AID1574]
T4 sequence (O15305 whole entry): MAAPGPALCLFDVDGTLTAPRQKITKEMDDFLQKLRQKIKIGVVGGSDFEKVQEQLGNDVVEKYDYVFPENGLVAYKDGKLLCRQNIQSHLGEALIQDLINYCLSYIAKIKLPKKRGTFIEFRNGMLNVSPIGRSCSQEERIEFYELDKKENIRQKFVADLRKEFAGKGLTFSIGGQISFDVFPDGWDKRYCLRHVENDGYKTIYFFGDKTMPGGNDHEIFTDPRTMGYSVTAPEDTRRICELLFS

[7] = target: Eukaryotic translation initiation factor 4E (Mus musculus, UniProt P63073); test: blockers of eIF4G binding by eIF4E – biochemical, TR-FRET, dose response (AID 855); type: functional;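 note: potency for disrupting eIF4E binding to eIF4GI seen as loss of FRET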
Eukaryotic translation initiation factor 4E, sequence (P63073 whole entry): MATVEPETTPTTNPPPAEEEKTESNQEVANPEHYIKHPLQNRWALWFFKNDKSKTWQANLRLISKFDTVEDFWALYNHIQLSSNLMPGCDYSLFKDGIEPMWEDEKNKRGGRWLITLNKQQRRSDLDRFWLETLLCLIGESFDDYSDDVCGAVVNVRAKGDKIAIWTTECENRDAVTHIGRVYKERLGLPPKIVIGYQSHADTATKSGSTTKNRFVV

[8] = target: T2, Mannose-6-phosphate isomerase; test: phosphomannose isomerase inhibition – biochemical, fluorescence intensity, confirmation (AID 1535)
[9] = target: T5, Alkaline phosphatase, tissue-nonspecific isozyme (Homo sapiens, UniProt P05186); test: potency against alkaline phosphatase TNAP – biochemical, luminescent, dose response, SAR follow-up (AID 1056)
T5 sequence (P05186 whole entry): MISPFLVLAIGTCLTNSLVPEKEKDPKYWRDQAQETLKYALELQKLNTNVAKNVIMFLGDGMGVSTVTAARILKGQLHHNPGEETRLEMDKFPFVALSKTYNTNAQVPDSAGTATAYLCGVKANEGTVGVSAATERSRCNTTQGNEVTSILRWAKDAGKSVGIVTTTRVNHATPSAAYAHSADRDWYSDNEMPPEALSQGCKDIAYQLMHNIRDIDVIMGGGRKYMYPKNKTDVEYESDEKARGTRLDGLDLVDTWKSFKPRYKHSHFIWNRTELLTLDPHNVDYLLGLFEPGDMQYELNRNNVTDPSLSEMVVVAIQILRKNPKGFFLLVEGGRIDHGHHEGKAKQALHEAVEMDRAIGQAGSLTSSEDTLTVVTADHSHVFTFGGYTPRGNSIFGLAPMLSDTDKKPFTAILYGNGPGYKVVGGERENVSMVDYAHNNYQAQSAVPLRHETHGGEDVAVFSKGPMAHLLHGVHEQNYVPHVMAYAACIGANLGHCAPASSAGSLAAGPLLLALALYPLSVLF

Estrogen receptor beta [10] = target: T6, Estrogen receptor beta (Homo sapiens, UniProt Q92731);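 note: recombinant ER-beta bound to coactivator SRC1 peptide in presence of estradiol agonist; inhibitors block coactivator peptide binding and lower the FRET signal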
T6 sequence (Q92731 whole entry): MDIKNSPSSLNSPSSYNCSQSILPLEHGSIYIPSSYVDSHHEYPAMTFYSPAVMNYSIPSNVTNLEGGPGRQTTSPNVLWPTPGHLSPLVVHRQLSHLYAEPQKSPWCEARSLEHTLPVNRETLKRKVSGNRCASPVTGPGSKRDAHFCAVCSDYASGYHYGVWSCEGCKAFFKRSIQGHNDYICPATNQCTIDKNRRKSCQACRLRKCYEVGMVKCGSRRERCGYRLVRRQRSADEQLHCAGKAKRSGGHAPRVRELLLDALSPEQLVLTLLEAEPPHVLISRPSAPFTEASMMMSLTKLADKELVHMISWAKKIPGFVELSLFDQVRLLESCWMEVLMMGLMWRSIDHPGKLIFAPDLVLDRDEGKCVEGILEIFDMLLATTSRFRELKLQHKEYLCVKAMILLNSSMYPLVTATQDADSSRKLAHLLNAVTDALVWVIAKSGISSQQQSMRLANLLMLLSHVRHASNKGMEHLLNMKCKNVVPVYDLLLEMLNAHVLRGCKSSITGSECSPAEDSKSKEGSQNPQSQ

Protein RecA = target: T7, Protein RecA (Mycobacterium tuberculosis, UniProt P9WHJ3); test: Fluorescence Cell-Free Homogeneous Dose Retest to Identify Inhibitors of RecA-Intein Splicing Activity. [Related pubchem assays (depositor defined):AID2097, AID2223, AID489010, AID492950]; type: functional
T7 sequence (P9WHJ3 whole entry): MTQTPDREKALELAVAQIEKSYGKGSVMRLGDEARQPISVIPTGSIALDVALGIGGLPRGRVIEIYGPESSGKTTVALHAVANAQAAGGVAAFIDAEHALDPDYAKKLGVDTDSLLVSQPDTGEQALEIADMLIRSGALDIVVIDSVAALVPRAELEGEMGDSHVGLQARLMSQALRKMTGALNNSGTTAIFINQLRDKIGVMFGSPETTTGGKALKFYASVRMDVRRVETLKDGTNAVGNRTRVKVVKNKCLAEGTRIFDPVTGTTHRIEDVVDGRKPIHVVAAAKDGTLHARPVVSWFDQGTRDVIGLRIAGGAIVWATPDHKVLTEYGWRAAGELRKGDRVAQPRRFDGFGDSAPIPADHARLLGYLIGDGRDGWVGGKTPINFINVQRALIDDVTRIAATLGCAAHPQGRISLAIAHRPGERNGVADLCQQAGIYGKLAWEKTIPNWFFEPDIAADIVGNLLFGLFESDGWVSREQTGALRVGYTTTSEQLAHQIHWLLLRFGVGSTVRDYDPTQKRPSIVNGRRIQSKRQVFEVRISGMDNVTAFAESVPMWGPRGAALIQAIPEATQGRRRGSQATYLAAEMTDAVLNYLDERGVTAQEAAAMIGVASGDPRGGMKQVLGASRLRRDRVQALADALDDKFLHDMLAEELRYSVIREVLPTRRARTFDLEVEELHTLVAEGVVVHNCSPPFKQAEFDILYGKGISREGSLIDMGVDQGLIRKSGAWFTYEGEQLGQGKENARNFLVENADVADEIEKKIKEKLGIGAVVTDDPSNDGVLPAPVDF

[11] = target: T8, Replicative DNA helicase DnaB (Mycobacterium tuberculosis, UniProt P9WMR3); test: DnaB intein splicing inhibitors, dose response, biochemical, cell-free fluorescence (AID 449749); type: functional
T8 sequence (P9WMR3 whole entry): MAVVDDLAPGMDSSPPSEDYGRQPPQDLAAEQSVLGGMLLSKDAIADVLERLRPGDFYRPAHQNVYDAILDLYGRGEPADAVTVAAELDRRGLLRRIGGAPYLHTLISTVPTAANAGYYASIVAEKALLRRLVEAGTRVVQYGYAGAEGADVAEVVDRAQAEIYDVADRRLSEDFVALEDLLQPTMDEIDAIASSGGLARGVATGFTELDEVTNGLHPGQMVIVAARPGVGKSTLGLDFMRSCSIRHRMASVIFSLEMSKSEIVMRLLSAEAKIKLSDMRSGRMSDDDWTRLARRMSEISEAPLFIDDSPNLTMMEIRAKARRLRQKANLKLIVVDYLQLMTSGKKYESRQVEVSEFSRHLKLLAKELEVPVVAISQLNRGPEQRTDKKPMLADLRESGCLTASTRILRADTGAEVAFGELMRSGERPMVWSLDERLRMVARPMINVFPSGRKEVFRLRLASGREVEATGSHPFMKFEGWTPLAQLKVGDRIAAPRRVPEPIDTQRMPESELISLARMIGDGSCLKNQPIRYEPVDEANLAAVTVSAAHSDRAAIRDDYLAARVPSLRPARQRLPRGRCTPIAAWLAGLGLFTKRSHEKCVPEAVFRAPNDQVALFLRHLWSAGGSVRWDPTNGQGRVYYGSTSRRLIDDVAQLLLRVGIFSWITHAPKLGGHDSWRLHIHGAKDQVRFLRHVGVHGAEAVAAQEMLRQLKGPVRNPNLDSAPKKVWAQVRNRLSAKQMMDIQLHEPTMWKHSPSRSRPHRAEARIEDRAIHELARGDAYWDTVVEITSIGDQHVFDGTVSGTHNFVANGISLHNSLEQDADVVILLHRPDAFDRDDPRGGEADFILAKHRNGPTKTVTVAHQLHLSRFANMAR

Estrogen receptor beta [12] = target: T6, Estrogen receptor beta; test: blockers of SRC-3 recruitment to ERβ – biochemical, ELISA, streptavidin-HRP readout, orthogonal assay, confirmation (AID 1060)
NADPH oxidase 1 = NADPH oxidase 1 (Homo sapiens, UniProt Q9Y5S8); type: functional, cell-based;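 note: Cell-based assay with luminescence read-out, IC50 derived from inhibitor dose-response curves; intracellular ROS from endogenous NOX1 in intact HT29 colon cancer cells; potency of inhibitors that lower the ROS luminescence signal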
NADPH oxidase 1, sequence (Q9Y5S8 whole entry): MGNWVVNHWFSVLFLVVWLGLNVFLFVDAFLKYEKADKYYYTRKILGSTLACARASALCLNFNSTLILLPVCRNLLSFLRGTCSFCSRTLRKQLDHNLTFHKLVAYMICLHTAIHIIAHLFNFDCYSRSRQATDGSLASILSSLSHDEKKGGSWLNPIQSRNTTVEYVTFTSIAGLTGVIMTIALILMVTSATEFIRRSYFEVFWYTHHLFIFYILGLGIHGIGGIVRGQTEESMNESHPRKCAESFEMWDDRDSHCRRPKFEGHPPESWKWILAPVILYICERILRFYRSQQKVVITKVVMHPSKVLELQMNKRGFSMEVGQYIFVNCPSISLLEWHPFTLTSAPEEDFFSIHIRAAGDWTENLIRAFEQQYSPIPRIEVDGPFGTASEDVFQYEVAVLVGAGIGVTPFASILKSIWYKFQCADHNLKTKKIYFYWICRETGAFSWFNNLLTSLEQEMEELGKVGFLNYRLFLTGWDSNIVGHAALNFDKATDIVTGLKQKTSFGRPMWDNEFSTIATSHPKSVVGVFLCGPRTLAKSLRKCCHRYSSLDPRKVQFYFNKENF

Cc1ccc(-n2sc3ccccc3c2=O)cc1S(=O)(=O)N1CCCCC1
IC50 (Aspartyl aminopeptidase): 4.28 µM (active) | IC50 [1]: 10.5 µM (not active) | IC50 (Large T antigen): 26.1 µM (active) | IC50 [2]: 1.84 µM (inactive) | EC50 [3]: > 60 µM (not active) | IC50 [4]: > 50 µM (not active) | EC50 [5]: 0.89 µM (active) | IC50 [6]: > 50 µM (not active) | IC50 (Procathepsin L): > 59.6 µM (not active) | IC50 (Insulin-degrading enzyme): 4.05 µM (active) | IC50 (Phosphomannomutase 2): 14.6 µM (active) | IC50 [7]: 1.93 µM (active) | IC50 [8]: 3.06 µM (active) | IC50 [9]: > 100 µM (inactive)

CC1(N2CCOCC2)CC2(O)C(=[N+]1[O-])CCc1nonc12 (centres undefined)
IC50 (Estrogen receptor beta [10]): 12 µM (active) | EC50 (Protein RecA): 11.9 µM (active) | AC50 [11]: > 380 µM (inactive) | IC50 (Estrogen receptor beta [12]): 0.256 µM (not active)

c1ccc(-c2nc(-c3ccccc3)c(-c3ccccc3)o2)cc1
IC50 (NADPH oxidase 1): > 17 µM (not active)
